According to US11976074B1, “Crystalline salts of Linsitinib” (Sling Therapeutics, Inc., priority 2023, dated 2024):
Converted amounts (≈) assume the structure as drawn.

Tests used:
[1] = pH-solubility of linsitinib free base and selected salts (pH 1.5 to 6.5, overnight equilibration, HPLC); assay type: physicochemical; details: for solubility: aqueous solution, thermodynamic from solid, overnight equilibration, read-out: Solubility; for Final pH: after overnight equilibration
Experimental: The pH-solubility of selected salts (Phosphate 1, L-Malate 1, Esylate 1, and Esylate 2) was evaluated and compared with linsitinib free base. The solubility analysis was conducted in a manner consistent with a previous study that was performed with linsitinib free base. Aqueous solutions were prepared between pH 1.5 and pH 6.5 in 0.5 pH unit increments via titration of the solution using NaOH and HCl. For each salt or the free base, an attempt was made to reach saturation in each of the solutions by adding sufficient material to the solution such that excess solids remained. If saturation was achieved, the pH of the solution was measured and adjusted to the target pH and additional material was added if needed. The samples were then equilibrated overnight. The final pH of the solution was measured, the solids were filtered and selected samples were analyzed by PXRD. The concentration of linsitinib in the filtrate was quantitated by HPLC (diluted as needed). In some cases, significant drift (+1 pH unit or more) of the final pH from the target pH was observed after the overnight equilibration.
The pH-solubility data is shown graphically in FIG. 89. […] Indeed, it should be noted that in the majority of the low pH systems, higher initial dissolution/solubility was observed followed by precipitation of the material from solution upon longer equilibration.

[2] = cited from earlier work
[3] = Equilibrium solubility in bio-relevant media (FaSSGF pH 1.6, FaSSIF pH 6.5); assay type: physicochemical; details: for solubility: thermodynamic from solid, read-out: Solubility
Source text: In addition to the pH-solubility data, a comparison of the equilibrium solubility of linsitinib free base and salts in two bio-relevant media (Table 28), fasted state simulated gastric fluid (FaSSGF pH 1.6) and intestinal fluid (FaSSIF pH 6.5) was completed. […] A saturated solution of Esylate 1 was not achieved during this study and therefore the equilibrium solubility could be higher than determined. It should be noted that variability of almost a full pH unit was noted among the samples making a direct comparison more challenging.

[4] = cited from earlier work; remark: listed apart in the source
[5] = Polymorph screen of linsitinib malate (PXRD/XRPD result); assay type: physicochemical; details: polymorph screen of linsitinib malate; slurry, cooling, precipitation or lyophilization; solvent and conditions per sample no.; listed as 4-10
Experimental: A Rigaku SmartLab X-Ray Diffractometer was configured in Bragg-Brentano reflection geometry equipped with a beam stop and knife edge to reduce incident beam and air scatter.
A polymorph screen of linsitinib malate was conducted. Experiments were designed to target thermodynamically stable forms and therefore utilized techniques such as long-term slurry, cooling, anti-solvent addition, and evaporation. Reaction crystallization experiments with linsitinib free base and L-malic acid were also conducted. Additionally, non-crystalline material was used as an alternative starting material as this can provide access to polymorphs that would not be accessible from crystalline starting material.

[6] = Water activity boundary between malate forms; assay type: physicochemical; details: or 90% relative humidity
Experimental: Malate 2, Malate 4, and Malate 5 were all obtained from high water activity conditions and are suspected to be hydrated forms. Based on the weight loss in the TG thermograms of Malate 4 and Malate 5, they could be di-hydrates. The water activity boundary between Malate 4 and Malate 1 was determined to be approximately 0.9 water activity, or 90% relative humidity. At a water activity of 0.8, Malate 1 was obtained; however, there were additional peaks present by PXRD. […]

[7] = Thermogravimetric analysis (TGA); assay type: physicochemical; details: start to 65° C.
Experimental: The TG analysis was carried out using a TA Instruments […] Discovery Series instrument. The instrument balance was calibrated using class M weights and the temperature calibration was performed using alumel. The nitrogen purge was 10 mL per minute at the balance and 25 mL per minute at the furnace. The sample was placed into a pre-tared platinum pan and heated from approximately 25° C. to 300° C. at a rate of 10° C. per minute.

[8] = Heating experiments with selected malate samples; assay type: physicochemical
Experimental: Based on the thermal data, Malate 4 and Malate 5 were heated at […] for 15 minutes. The solids were re-analyzed by PXRD after heating to investigate any form change upon dehydration. […] While there was an insufficient amount of sample to further characterize Malate 7, based on the conditions upon which it was generated, it could be a lower hydrate or an anhydrous form.

Work on `C[C@]1(O)C[C@@H](c2nc(-c3ccc4ccc(-c5ccccc5)nc4c3)c3c(N)nccn32)C1` [Linsitinib free base, Cis-3-[8-amino-1-(2-phenyl-7-quinolinyl)imidazo[1,5-a]pyrazin-3-yl]-1-methyl-cyclobutanol, reference compound] yielded a solubility ([1]; pH 4, aqueous buffer, target pH 4.0, * = clear solution, not equilibrium value) of 116 µg/mL, a solubility ([1]; pH 4.5, aqueous buffer, target pH 4.5, * = clear solution, not equilibrium value) of 5.1 µg/mL and a solubility ([1]; pH 5, aqueous buffer, target pH 5.0) of 1.2 µg/mL. For the same molecule, the solubility ([1]; pH 5.5, aqueous buffer, target pH 5.5) was 1.7 µg/mL, the solubility ([1]; pH 6, aqueous buffer, target pH 6.0) was 1 µg/mL and the solubility ([1]; pH 6.5, aqueous buffer, target pH 6.5) was 1.2 µg/mL. It also gave a solubility ([1]; pH adjusted with NaOH and HCl, pH 1.5, aqueous buffer, target pH 1.5, * = clear solution, not equilibrium value) of 54000 µg/mL, a solubility ([1]; pH adjusted with NaOH and HCl, pH 2, aqueous buffer, target pH 2.0, * = clear solution, not equilibrium value) of 23600 µg/mL and a solubility ([1]; pH adjusted with NaOH and HCl, pH 2.5, aqueous buffer, target pH 2.5, * = clear solution, not equilibrium value) of 17600 µg/mL. The solubility ([1]; pH adjusted with NaOH and HCl, pH 3, aqueous buffer, target pH 3.0, * = clear solution, not equilibrium value) was 15000 µg/mL, the solubility ([1]; pH adjusted with NaOH and HCl, pH 3.5, aqueous buffer, target pH 3.5, * = clear solution, not equilibrium value) was 1730 µg/mL and the “Final pH” value ([1]; target pH 1.5) was 1.52. For the same molecule, the “Final pH” value ([1]; target pH 2.0) was 2.04, the “Final pH” value ([1]; target pH 2.5) was 2.33 and the “Final pH” value ([1]; target pH 3.0) was 2.76. For the same molecule, the “Final pH” value ([1]; target pH 3.5) was 3.64, the “Final pH” value ([1]; target pH 4.0) was 4.18 and the “Final pH” value ([1]; target pH 4.5) was 5.54. The “Final pH” value ([1]; target pH 5.0) was 6.18, the “Final pH” value ([1]; target pH 5.5) was 6.43 and the “Final pH” value ([1]; target pH 6.0) was 7.02. The “Final pH” value ([1]; target pH 6.5) was 6.43, the Hygroscopicity ([2]; anhydrous/non-solvated free base form) was “non-hygroscopic” and the “Solubility under acidic conditions” value [2] was “good solubility”. For the same molecule, the “Final pH” value ([3]; FaSSGF (pH 1.6)) was 4.04, the “Final pH” value ([3]; FaSSIF (pH 6.5)) was 6.57 and the solubility ([3]; fasted state simulated gastric fluid (FaSSGF), pH 1.6, fassgf or other biorelevant, FaSSGF (pH 1.6)) was 7670 µg/mL (≈ 18.2 mM). For the same molecule, the solubility ([3]; fasted state simulated intestinal fluid (FaSSIF), pH 6.5, fassif, FaSSIF (pH 6.5)) was 25 µg/mL (≈ 0.0593 mM) and the Permeability [4] was “good permeability”.

In the case of `C[C@]1(O)C[C@@H](c2nc(-c3ccc4ccc(-c5ccccc5)nc4c3)c3c(N)nccn32)C1.O=C(O)C[C@H](O)C(=O)O` [Malate 4], the “PXRD Results” value [5] is reported as “Malate 4”, the “Water activity boundary between Malate 4 and Malate 1” value [6] is reported as “approximately 0.9 water activity” and the “TGA Results (weight loss)” value [7] is reported as 7.3%, start to 65 °C. The “XRPD result after heating” value ([8]; 92° C., 15 min) was “Malate 7” and the “Form change upon heating (PXRD)” value ([8]; heated for 15 minutes) was “dehydrate to a new form, designated as Malate 7”.
